Literature values, collected in paper PMC7456637, “Pharmacokinetic characterization of fluorocoxib D, a cyclooxygenase-2-targeted optical imaging agent for detection of cancer” (Journal of Biomedical Optics, 2020).

Assays:
COX1 = conditions: cited from earlier work
[1] = administrated orally; cited from earlier work
COX2 = conditions: cited from earlier work
RAW264.7 macrophages = tested on: RAW264.7 macrophages; design: method as in PMID 20430759; conditions: cited from earlier work
[2] = dog, in vivo, po, 2 mg/kg; cited from earlier work

Row | Structure (SMILES) | IC50 (COX1) [nM] | Bioavailability [1] [%] | IC50 (COX2) [nM] | IC50 (RAW264.7 macrophages) [nM] | Elimination t1/2 [2] [h]
1 | COc1ccc2c(c1)c(CC(=O)O)c(C)n2C(=O)c1ccc(Cl)cc1 [Indomethacin, reference compound] | […] | 100 | […] | 10 | –
2 | CCc1ccc(Nc2c(F)c(F)cc(F)c2F)c(CC(=O)O)c1 [robenacoxib] | – | – | – | – | 1.1
